The record followed here is US20230085307A1, “PYRIDAZINONE COMPOUND AND HERBICIDE” (NISSAN CHEMICAL CORPORATION, priority 2019, published 2023).

The subject of one test is persian speedwell. The test can be described thus: Test Example 5: herbicidal effect by foliage application, plastic box (Table 20, symbol R). Particulars: foliage application, evaluated 3 weeks after application. The class given is in vivo, Persian speedwell (Veronica persica). The method in brief:
(§1)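 Plants sown in sterilized diluvial soil and grown 14 days in a greenhouse at 25° C to 30° C, then sprayed on the foliage with the compound's emulsion diluted in water to a predetermined herbicide amount. Injury to weeds and crops scored three weeks after application on a visual rating scale.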

The test system of a further test is oval-leafed pondweed. The test can be described thus: Test Example 1: herbicidal activity, application before weed generation under submerged conditions (Table 16, symbol C). In kind it is in vivo, oval-leafed pondweed (Monochoria vaginalis). The method in brief:
(§2)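 Alluvial soil was flooded to 4 cm depth, weed seeds were sown mixed and 2.5-leaf rice seedlings were transplanted. On sowing day, the compound's emulsion, diluted in water to a set dose, was applied to the water surface. Plants grew at 25–30 °C and were scored 0–5 after three weeks.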

For the next test, the system named is Italian ryegrass. The test can be described thus: Test Example 4: herbicidal effect by soil treatment (Table 19, symbol K). The class given is in vivo, Italian ryegrass (Lolium multiflorum). The method in brief: (§3)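 Three weeks of greenhouse growth at 25° C. to 30° C. followed a uniform surface spray of water-diluted emulsion at a predetermined herbicide amount. Seeds had been sown beforehand under about 1.5 cm of sterilized diluvial soil. Grading followed criteria set out in an earlier test.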

The next test has as its system southern crabgrass. The test can be described thus: Test Example 5: herbicidal effect by foliage application, plastic box (Table 20, symbol F). In kind it is in vivo, southern crabgrass (Digitaria ciliaris). The note with it: foliage application, evaluated 3 weeks after application. The method in brief: as §1
In test [1] the test system is windgrass. Nature of the test: Test Example 5: herbicidal effect by foliage application, plastic box (Table 20, symbol L). The class given is in vivo, windgrass (Apera spica-venti). Particulars: foliage application, evaluated 3 weeks after application. The procedure, abridged: as §1
The subject of another test is green foxtail. Nature of the test: Test Example 4: herbicidal effect by soil treatment (Table 19, symbol G). In kind it is in vivo, green foxtail (Setaria viridis). The method in brief:
as §3

Test [2] concerns Japanese bulrush. The test can be described thus: Test Example 1: herbicidal activity, application before weed generation under submerged conditions (Table 16, symbol B). The class given is in vivo, Japanese bulrush (Schoenoplectus juncoides). The procedure, abridged:
as §2

The test system of test [3] is redroot pigweed. Nature of the test: Test Example 5: herbicidal effect by foliage application, plastic box (Table 20, symbol N). The note with it: foliage application, evaluated 3 weeks after application. The class given is in vivo, redroot pigweed (Amaranthus retroflexus). The method in brief: as §1
For test [4], the system named is Japanese bulrush. Nature of the test: Test Example 2: herbicidal activity, application during weed generation under submerged conditions (Table 17, symbol B). In kind it is in vivo, Japanese bulrush (Schoenoplectus juncoides). The note with it: application during weed generation under submerged conditions. The method in brief:
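Steps: fill Wagner pots with alluvial soil; add water to give 4 cm depth; sow the species mixed; grow under glass at 25–30° C.; at 1–2 leaves apply water-diluted emulsion formulation to the water surface at a fixed herbicide amount; score after 3 weeks.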

The test system of test [5] is wild oat. Nature of the test: Test Example 4: herbicidal effect by soil treatment (Table 19, symbol I). In kind it is in vivo, wild oat (Avena fatua). The procedure, abridged: as §3
For test [6], the system named is wild oat. The test can be described thus: Test Example 5: herbicidal effect by foliage application, plastic box (Table 20, symbol I). The class given is in vivo, wild oat (Avena fatua). Particulars: foliage application, evaluated 3 weeks after application. The method in brief:
as §1

The next test concerns lambsquarters. The test can be described thus: Test Example 5: herbicidal effect by foliage application, plastic box (Table 20, symbol O). The note with it: foliage application, evaluated 3 weeks after application. In kind it is in vivo, lambsquarters (Chenopodium album). The method in brief: as §1
Test [7] has as its system windgrass. Nature of the test: Test Example 4: herbicidal effect by soil treatment (Table 19, symbol L). The class given is in vivo, windgrass (Apera spica-venti). The procedure, abridged:
as §3

Another test deals with rice flat sedge. Nature of the test: Test Example 3: herbicidal effect by foliage application, Wagner pot (Table 18, symbol E). In kind it is in vivo, rice flat sedge (Cyperus iria). The method in brief: (§4)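 Plants were sown in alluvial soil held under 0.1–0.5 cm standing water and grown 14 days in a greenhouse at 25–30 °C. An emulsifiable formulation, water-diluted to the set dose, was then sprayed onto the foliage, and effects were scored three weeks later using previously defined criteria.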

The next test concerns Chinese sprangletop. The test can be described thus: Test Example 3: herbicidal effect by foliage application, Wagner pot (Table 18, symbol D). The class given is in vivo, chinese sprangletop (Leptochloa chinensis). The method in brief: as §4
For test [8], the system named is redroot pigweed. Nature of the test: Test Example 4: herbicidal effect by soil treatment (Table 19, symbol N). The class given is in vivo, redroot pigweed (Amaranthus retroflexus). The method in brief:
as §3

The test system of a further test is chickweed. Nature of the test: Test Example 4: herbicidal effect by soil treatment (Table 19, symbol P). In kind it is in vivo, common chickweed (Stellaria media). The method in brief: as §3
[9] abbreviates: amount of applied herbicide 402 g/ha.
Setting [10] is: amount of applied herbicide 320 g/ha.

Regarding `CCCC(=O)Oc1c(C)nn(C)c(=O)c1-c1c(-c2ccc(SC(C)C)cc2)oc2ccc(C)cc12` [9-060], the “R (persian speedwell) herbicidal effect grade” value with persian speedwell (402 g/ha) is recorded as 5 (Herbicidal rate of 90% or more (almost completely withered)). In addition, in the test on oval-leafed pondweed (setting [9]), the “Herbicidal effect, C: oval-leafed pondweed” value is 5 (Herbicidal rate of 90% or more (almost completely withered)). Also, the “K: Italian ryegrass, herbicidal effect grade” value with Italian ryegrass (setting [9]) was 4 (Herbicidal rate of 70% or more and less than 90%). For the same compound, in the test with southern crabgrass (402 g/ha), the “F (southern crabgrass) herbicidal effect grade” value is given as 0 (Herbicidal rate of 5% or less (almost no effect)). Also, the “L (windgrass) herbicidal effect grade” value in the test with windgrass [1] (402 g/ha) is recorded as 0 (Herbicidal rate of 5% or less (almost no effect)). Further, the “G: green foxtail, herbicidal effect grade” value in the test on green foxtail (setting [9]) was 3 (Herbicidal rate of 40% or more and less than 70%). Moreover, the “Herbicidal effect, B: Japanese bulrush” value in the test on Japanese bulrush [2] (setting [9]) was 4 (Herbicidal rate of 70% or more and less than 90%). The “N (redroot pigweed) herbicidal effect grade” value with redroot pigweed [3] (402 g/ha) is 5 (Herbicidal rate of 90% or more (almost completely withered)). Further, the “herbicidal effect grade, B: Japanese bulrush” value in the test with Japanese bulrush [4] (setting [9]) was 3 (Herbicidal rate of 40% or more and less than 70%). The “I: wild oat, herbicidal effect grade” value in the test with wild oat [5] (setting [9]) is given as 0 (Herbicidal rate of 5% or less (almost no effect)). The “I (wild oat) herbicidal effect grade” value in the test with wild oat [6] (402 g/ha) is 3 (Herbicidal rate of 40% or more and less than 70%). In addition, in the test on lambsquarters (402 g/ha), the “O (lambsquarters) herbicidal effect grade” value is 5 (Herbicidal rate of 90% or more (almost completely withered)). The “L: windgrass, herbicidal effect grade” value with windgrass [7] (setting [9]) was 0 (Herbicidal rate of 5% or less (almost no effect)). The “Herbicidal effect on E (rice flat sedge), foliage application” value in the test on rice flat sedge (setting [9]) is on record as 5 (Herbicidal rate of 90% or more (almost completely withered)). Moreover, the “Herbicidal effect on D (Chinese sprangletop), foliage application” value with Chinese sprangletop (setting [9]) was 2 (Herbicidal rate of 20% or more and less than 40%). Besides, in the test on redroot pigweed [8] (setting [9]), the “N: redroot pigweed, herbicidal effect grade” value was 5 (Herbicidal rate of 90% or more (almost completely withered)). In addition, in the test on chickweed (setting [9]), the “P: chickweed, herbicidal effect grade” value is 1 (Herbicidal rate of 5% or more and less than 20%).
Regarding `CCCC(=O)Oc1c(C)nn(C)c(=O)c1-c1c(-c2ccc(COC)cc2)oc2ccc(C)cc12` [9-062], the “R (persian speedwell) herbicidal effect grade” value with persian speedwell (320 g/ha) is recorded as 5 (Herbicidal rate of 90% or more (almost completely withered)). Moreover, in the test on oval-leafed pondweed (setting [10]), the “Herbicidal effect, C: oval-leafed pondweed” value is 5 (Herbicidal rate of 90% or more (almost completely withered)). The “K: Italian ryegrass, herbicidal effect grade” value in the test on Italian ryegrass (setting [10]) was 5 (Herbicidal rate of 90% or more (almost completely withered)). For the same compound, the “F (southern crabgrass) herbicidal effect grade” value with southern crabgrass (320 g/ha) is 5 (Herbicidal rate of 90% or more (almost completely withered)). Moreover, the “L (windgrass) herbicidal effect grade” value in the test on windgrass [1] (320 g/ha) is given as 0 (Herbicidal rate of 5% or less (almost no effect)). In the test with green foxtail (setting [10]), the “G: green foxtail, herbicidal effect grade” value is listed as 5 (Herbicidal rate of 90% or more (almost completely withered)). Further, in the test with Japanese bulrush [2] (setting [10]), the “Herbicidal effect, B: Japanese bulrush” value is on record as 5 (Herbicidal rate of 90% or more (almost completely withered)). Moreover, the “N (redroot pigweed) herbicidal effect grade” value in the test with redroot pigweed [3] (320 g/ha) was 5 (Herbicidal rate of 90% or more (almost completely withered)). The “herbicidal effect grade, B: Japanese bulrush” value with Japanese bulrush [4] (setting [10]) is 3 (Herbicidal rate of 40% or more and less than 70%). Besides, the “I: wild oat, herbicidal effect grade” value in the test with wild oat [5] (setting [10]) was 0 (Herbicidal rate of 5% or less (almost no effect)). Besides, the “I (wild oat) herbicidal effect grade” value in the test with wild oat [6] (320 g/ha) is recorded as 0 (Herbicidal rate of 5% or less (almost no effect)). Besides, the “O (lambsquarters) herbicidal effect grade” value in the test with lambsquarters (320 g/ha) is recorded as 5 (Herbicidal rate of 90% or more (almost completely withered)). Besides, the “L: windgrass, herbicidal effect grade” value in the test on windgrass [7] (setting [10]) is listed as 0 (Herbicidal rate of 5% or less (almost no effect)). The “Herbicidal effect on E (rice flat sedge), foliage application” value in the test on rice flat sedge (setting [10]) is 5 (Herbicidal rate of 90% or more (almost completely withered)). The “Herbicidal effect on D (Chinese sprangletop), foliage application” value with Chinese sprangletop (setting [10]) was 3 (Herbicidal rate of 40% or more and less than 70%). The “N: redroot pigweed, herbicidal effect grade” value in the test on redroot pigweed [8] (setting [10]) is reported as 5 (Herbicidal rate of 90% or more (almost completely withered)). In the test on chickweed (setting [10]), the “P: chickweed, herbicidal effect grade” value was 3 (Herbicidal rate of 40% or more and less than 70%).
